Experimental data published in BindingDB's records for patent US11185100 (MARS, INCORPORATED, 2021).

What was measured:
[1] = target: T1, G-protein coupled receptors family 3 profile domain-containing protein (Felis catus, UniProt A0ABI7Z2I4); assay: Activation of T1R1/T1R3 Receptor by Nucleotide Derivatives (alanine)
Description: The concentration of alanine is 20 mM.
Target sequence in this assay (A0ABI7Z2I4 1-770): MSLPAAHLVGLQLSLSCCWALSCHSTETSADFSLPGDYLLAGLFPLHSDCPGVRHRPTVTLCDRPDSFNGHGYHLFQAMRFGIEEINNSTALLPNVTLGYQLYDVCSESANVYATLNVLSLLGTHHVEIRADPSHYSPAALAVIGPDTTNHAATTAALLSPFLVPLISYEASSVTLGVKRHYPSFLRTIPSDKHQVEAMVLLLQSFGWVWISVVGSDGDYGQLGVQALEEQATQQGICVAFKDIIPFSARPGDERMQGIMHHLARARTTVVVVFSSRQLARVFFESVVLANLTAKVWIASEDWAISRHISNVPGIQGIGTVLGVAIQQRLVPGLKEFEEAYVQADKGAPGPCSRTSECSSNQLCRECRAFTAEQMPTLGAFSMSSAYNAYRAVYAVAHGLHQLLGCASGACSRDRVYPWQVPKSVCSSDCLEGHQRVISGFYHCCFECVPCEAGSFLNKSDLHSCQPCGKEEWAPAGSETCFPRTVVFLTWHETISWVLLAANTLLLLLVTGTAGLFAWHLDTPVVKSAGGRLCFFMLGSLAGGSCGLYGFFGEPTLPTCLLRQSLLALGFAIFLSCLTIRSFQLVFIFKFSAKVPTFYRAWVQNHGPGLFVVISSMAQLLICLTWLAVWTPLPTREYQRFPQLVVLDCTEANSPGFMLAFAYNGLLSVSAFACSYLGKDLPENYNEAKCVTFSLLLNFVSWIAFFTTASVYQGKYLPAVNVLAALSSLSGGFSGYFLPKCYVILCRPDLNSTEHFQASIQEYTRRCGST

[2] = target: T1, G-protein coupled receptors family 3 profile domain-containing protein; assay: Activation of T1R1/T1R3 Receptor by Nucleotide Derivatives
From the text: HEK293 cells that stably express T1R3 and inducibly express T1R1 were exposed to nucleotide derivatives alone to activate the umami receptor. Activation of the T1R1/T1R3 receptor was detected by a change in intracellular calcium levels using a calcium sensitive fluorescent dye. Cells that express T1R3 but not T1R1 were used as a control. A FLIPR Tetra or a FlexStation 3 was used for data capture.

| Structure (SMILES) | EC50 [1] [µM] | EC50 [2] [µM] |
| --- | --- | --- |
| CC1(O)[C@](C)(n2cnc3c(N)ncnc32)O[C@](C)(COP(O)(O)=S)[C@]1(C)O (stereo partly drawn) [US11185100, TABLE 6.6] | 60 |  |
| CC1(O)[C@@](C)(COP(O)(O)=S)O[C@@](C)(n2cnc3c(N)ncnc32)[C@@]1(C)O (stereo partly drawn) [US11185100, TABLE 7.9] | 60 |  |
| Nc1ncnc2c1ncn2[C@@H]1O[C@H](COP(=O)(O)O)[C@@H](OP(=O)(O)O)[C@H]1O [US11185100, TABLE 7.1] |  | > 30 |
